One assay has as its system Her-2 in SkBr3 cells. As to the kind of experiment: Her-2 depletion in SkBr3 cells as pharmacodynamic marker of cellular efficacy. Format: cell-based. As to conditions: read-out: PD (Her-2 depletion in SkBr3 cells, EC50); SkBr3 cells treated with the inhibitor overnight.
Another assay concerns BT474 breast tumor cells. As to conditions: xenografts bearing BT474 breast tumor cells; cited from earlier work.

As usually defined, the EC50 is the midpoint of the concentration-response curve. Turning to `CC1=CC(=NOCC(=O)N2CCCCC2)Cc2cc(O)cc(O)c2C(=O)OCCC=CCC1` [Compound A1B3C4D1], in the assay on Her-2 in SkBr3 cells, the EC50 is not above 500 nM.
The same measure, in the same setting: the same measure for `CC1C=CCCOC(=O)c2c(O)cc(O)cc2CC(=NOCC(=O)N2CCCCC2)C=CC1` (stereo not drawn) [Compound A1B4C4D1]: not above 500 nM.
Turning to `O=C1OCC/C=C/CC/C=C/C(=N/OCC(=O)N2CCCCC2)Cc2c(Cl)c(O)cc(O)c21` [Pochoxime A], in the assay with BT474 breast tumor cells, the “Effect on tumor in xenografts” value is recorded as “tumor regression”.

Source of the values: publication PMC7556317 (Chembiochem : a European journal of chemical biology, 2009).
